Measurements published in patent US20100190686A1, “NOVEL SECRETED PROTEINS OF ADIPOCYTES FOR DIAGNOSTIC PURPOSES” (The University of Georgia Research Foundation, priority 2007, published 2010).

Experiments:
[1] = type 2 diabetes, randomized controlled trial, cited from earlier work
[2] = system: rat primary adipocytes; experiment: O-GlcNAc levels by Western blot (RL-2 antibody) of whole-cell extracts, rat primary adipocytes; assay type: cell-based; conditions: PUGNAc 100 μM vs low glucose (LG), FIG. 1
Description: Rat Primary cell culture: inguinal and retroperitoneal fat pads were removed aseptically from male Sprague-Dawley rats (Harlan Industries, Indianapolis, Ind.) and primary preadipocytes were isolated as described in detail previously^26,27. After additional washing and centrifugation steps, the preadipocyte pellet was resuspended in plating medium (high glucose DMEM, antibiotics: PS, 10% FBS) and seeded at an average density of 1.35×10^4 cells/cm^2 for inguinal and 1.63×10^3 cells/cm^2 for retroperitoneal on 10 cm dishes for the differentiation. Primary cells were maintained in a humidified atmosphere containing 5% CO2 in air at 37° C. and cultured to confluence, changing the plating medium every 2 days. After 2 days of confluence, referred to as day 0, the medium was replaced with differentiation medium (high glucose DMEM containing antibiotics and 10% FBS, 0.25 mM MIX, 0.1 μM dexamethasone, and 17 nM insulin) and at day 2, an additional 17 nM of insulin was administered with the plating medium for an additional 48 hrs incubation. The cells were maintained in low glucose DMEM containing 10% FBS and treatments (see below) until harvest. […]

[3] = system: rat primary adipocytes; experiment: Quantitative LC-MS/MS and 2D-LC-MS/MS analysis of the secreted proteome of primary rat adipocytes; assay type: cell-based
Description: Rat Primary cell culture: inguinal and retroperitoneal fat pads were removed aseptically from male Sprague-Dawley rats (Harlan Industries, Indianapolis, Ind.) and primary preadipocytes were isolated as described in detail previously^26,27. After additional washing and centrifugation steps, the preadipocyte pellet was resuspended in plating medium (high glucose DMEM, antibiotics: PS, 10% FBS) and seeded at an average density of 1.35×10^4 cells/cm^2 for inguinal and 1.63×10^3 cells/cm^2 for retroperitoneal on 10 cm dishes for the differentiation. Primary cells were maintained in a humidified atmosphere containing 5% CO2 in air at 37° C. and cultured to confluence, changing the plating medium every 2 days. After 2 days of confluence, referred to as day 0, the medium was replaced with differentiation medium (high glucose DMEM containing antibiotics and 10% FBS, 0.25 mM MIX, 0.1 μM dexamethasone, and 17 nM insulin) and at day 2, an additional 17 nM of insulin was administered with the plating medium for an additional 48 hrs incubation. The cells were maintained in low glucose DMEM containing 10% FBS and treatments (see below) until harvest.
(§1) On the designated days (day 4 for 3T3-L1, day 5 for 3T3-F442A, and day 9 for rat primary adipocytes), adipocytes were induced with a combined treatment of low or high glucose containing 10% FBS, with or without insulin (100 nM) and PUGNAc (100 μM, TRC Inc.) according to the experimental conditions described in the results. After 24 hrs incubation, the medium was removed and the cells were washed five times with low or high glucose serum-free DMEM without antibiotics and vitamins and incubated with the last rinse for 15 min. After the final wash was removed, serum-free media supplemented with insulin (1 nM) or PUGNAc (100 μM) was added and cells were incubated for 16 hrs.
After incubation, the conditioned media were harvested with extreme care and then centrifuged once at 1,800 rpm at 4° C. for 7 min. The supernatants were filtered using 1 μm syringe filters (PALL). The samples were then collected in centrifuge tubes and centrifuged again at 30,000×G at 4° C. for 30 min. The samples were then transferred to an equilibrated spin column (Centriprep YM-3, Amicon, Millipore) and buffer-exchanged at 2,800 G and 4° C. into 40 mM ammonium bicarbonate (NH4HCO3) plus 1 mM DTT and concentrated. The concentrated samples were denatured with 1 M urea, reduced with 10 mM DTT for 1 hr at 56° C., carboxyamidomethylated with 55 mM iodoacetamide in the dark for 45 min, and then digested with 5 μg trypsin (Promega) in 40 mM NH4HCO3 overnight at 37° C. After digestion, the peptides were acidified with 200 μl of 1% trifluoroacetic acid (TFA). Desalting was subsequently performed with C18 spin columns (Vydac Silica C18, The Nest Group, Inc.), and the resulting peptides were dried down in a Speed Vac and stored at −20° C. until analyzed. For the subset of samples to be analyzed for N-linked glycosylation, peptides were resuspended in 19 μl ^18O-water and 1 μl of N-glycanase (PNGaseF, Prozyme) and allowed to incubate for 18 hours at 37° C. Peptides were dried back down and resuspended in 50 μl of 40 mM NH4HCO3 with 1 μg of trypsin, to remove any possible C-terminal incorporation of ^18O from residual trypsin activity^28, for 4 hours and then dried down and stored at −20° C. until analyzed.
The peptides were resuspended with 78 μl of mobile phase A (0.1% formic acid, FA, in water) and 2 μl of mobile phase B (80% acetonitrile, ACN, and 0.1% formic acid in water) and filtered with 0.2 μm filters (Nanosep, PALL). The samples were loaded off-line onto a nanospray tapered capillary column/emitter (360×75×15 μm, PicoFrit, New Objective) self-packed with C18 reverse-phase (RP) resin (8.5 cm, Waters) in a Nitrogen pressure bomb for 10 min at 1,000 p.s.i. (˜5 ul load) and then separated via a 160-min linear gradient of increasing mobile phase B at a flow rate of ˜200 nl/min directly into the mass spectrometer. […]

[4] = system: adipocytes; conditions: elevation of O-GlcNAc levels with PUGNAc; previously shown (ref 11); cited from earlier work
[5] = system: 3T3-L1 adipocytes; experiment: O-GlcNAc levels by Western blot (RL-2 antibody) of whole-cell extracts, mouse immortalized adipocytes; assay type: cell-based; conditions: PUGNAc 100 μM vs low glucose (LG), FIG. 1
Method: 3T3s cell lines: 3T3-L1 and -F442A fibroblasts were maintained and differentiated on 10 cm plates essentially as previously described^11,25. Briefly, two days after the cells reached confluence, cells were induced to differentiate with high ([…], 3T3-L1) or low (3T3-F442A) glucose ([…]) DMEM containing 10% fetal bovine serum (3T3-L1) or 10% calf serum (3T3-F442A) via addition of 0.5 mM (115 μg/mL) 3-isobutyl-1-methyxanthine (MIX, Sigma), 1 μM (390 ng/mL) dexamethasone (Sigma), and 175 nM (1 μg/mL) recombinant insulin (human, Roche). After 48 hrs (day 2), the medium was replaced with high (3T3-L1) or low (3T3-F442A) glucose DMEM plus 10% FBS and supplemented with 1 μg/mL insulin for an additional 48 hrs. After 96 hrs (day 4), cells were maintained in appropriate medium depending on the condition being examined.
as §1, with “After the final wash was removed, serum-free media supplemented with insulin (1 nM) or PUGNAc (100 μM) was added and cells were incubated for 16 hrs.” left out

[6] = PUGNAc treatment vs insulin responsive (LG) condition, same direction with HG+insulin, Table 5

CN(CCOc1ccc(CC2SC(=O)NC2=O)cc1)c1ccccn1 (stereo not drawn) [rosiglitazone]
weight gain and edema ([1]; compared with metformin and glyburide): more weight gain and edema

CC(=O)N[C@H]1/C(=N/OC(=O)Nc2ccccc2)O[C@H](CO)[C@@H](O)[C@@H]1O [PUGNAc]
O-GlcNAc levels [2]: elevate O-GlcNAc levels significantly | secretion of serine protease inhibitor 2C (reconstructed ion chromatogram of a peptide) ([3]; LG+PUG vs LG (normalized to 1.00), two biological replicates, FIG. 4A): upregulation | secretion of tetranectin (reconstructed ion chromatogram of a peptide) ([3]; LG+PUG vs LG (normalized to 1.00), two biological replicates, FIG. 4B): upregulation | secretion of cholesterol-binding protein NPC2 ([3]; PUGNAc treatment vs insulin responsive (LG) condition, both insulin resistance conditions): upregulated | secretion of GP-39 [3, 6]: upregulation | secretion of ceruloplasmin [3, 6]: upregulation | secretion of fibulin-2 [3, 6]: downregulated | secretion of lipoprotein lipase [3, 6]: upregulation | secretion of protein-S [3, 6]: upregulation | secretion of slit homolog 3 [3, 6]: downregulated | secretion of spondin [3, 6]: upregulation | induction of insulin resistance [4]: induces insulin resistance | O-GlcNAc levels [5]: elevate O-GlcNAc levels significantly

CN(C)C(=N)N=C(N)N [metformin]
cumulative incidence of monotherapy failure at 5 years ([1]; 5 years): 21%
